# Key:
# Format in all cases: cell-based
# [1] = system: Corynebacterium xerosis JCM 1324; experiment: MIC, agar medium dilution method (Mueller Hinton medium); conditions: (d) Corynebacterium xerosis, 37° C., 72 hours
# Description: (§1) Test for Antibacterial Ability (Measurement of Minimum Inhibitory Concentration (MIC) Using an Agar Medium Dilution Method) The samples were dissolved in ethanol to prepare a serial twofold dilution stage and 100 μL of each was added to 10 mL of a sterilized agar medium, which was then stirred sufficiently, then transferred to a 9-cm-diameter Petri dish and solidified at ambient temperature. 5 μL of a diluted test bacteria solution was implanted in the Petri dish and cultured at 37° C. for 72 hours. After the culturing was finished, the growth state of the medium in this Petri dish was compared with that in a Petri dish (blank) containing no sample and the concentration of the sample in which the growth of bacteria was not seen was defined as minimum inhibitory concentration (MIC). (d) Corynebacterium xerosis JCM 1324 (g) Corynebacterium minutissimum IFO 15361 • Mueller Hinton medium (Difco) in these cases Sample
# [2] = system: Propionibacterium acnes ATCC 6919; experiment: MIC, agar medium dilution method (Trypticase Soy Agar); conditions: (b) Propionibacterium acnes ATCC 6919, 37° C., 72 hours
# Description: as §1, with “(b) Propionibacterium acnes ATCC 6919 (c) Bacteriodes fragilis GAI 5560” for “(d) Corynebacterium xerosis JCM 1324 (g) Corynebacterium minutissimum IFO 15361”, “Trypticase Soy Agar (BBL)” for “Mueller Hinton medium (Difco)”, “cases” for “cases Sample”
# [3] = system: Propionibacterium acnes JCM 6473; experiment: as above; conditions: (a) Propionibacterium acnes JCM 6473, 37° C., 72 hours
# Description: as §1, with “(a) Propionibacterium acnes” for “(d) Corynebacterium xerosis”, “6473 (c) Bacteriodes fragilis GAI 5560” for “1324 (g) Corynebacterium minutissimum IFO 15361”, “Trypticase Soy Agar (BBL)” for “Mueller Hinton medium (Difco)”, “cases” for “cases Sample”
# [4] = system: Bacillus subtilis PCI 219; experiment: MIC, agar medium dilution method; conditions: 37° C., 72 hours
# Description: as §1, with “(MIC).” for “(MIC). (d) Corynebacterium xerosis JCM 1324 (g) Corynebacterium minutissimum IFO 15361 • Mueller Hinton medium (Difco) in these cases Sample”
# [5] = system: Bacteriodes fragilis GAI 5560; experiment: MIC, agar medium dilution method (Trypticase Soy Agar); conditions: (c) Bacteriodes fragilis, 37° C., 72 hours
# Description: as §1, with “(c) Bacteriodes fragilis GAI 5560” for “(d) Corynebacterium xerosis JCM 1324 (g) Corynebacterium minutissimum IFO 15361”, “Trypticase Soy Agar (BBL)” for “Mueller Hinton medium (Difco)”, “cases” for “cases Sample”
# [6] = system: Staphylococcus aureus 209P IAM 12082; experiment: MIC, agar medium dilution method (Mueller Hinton medium), qualification test method 1; conditions: method 1, agar, 37° C., 72 hours
# Description: as §1, with “Method) Measurement of Minimum Inhibitory Concentration (MIC) Using an Agar Medium Dilution Method” for “Method)”, “samples shown below” for “samples”, “medium (Mueller Hinton medium (Difco)),” for “medium,”, “(MIC).” for “(MIC). (d) Corynebacterium xerosis JCM 1324 (g) Corynebacterium minutissimum IFO 15361 • Mueller Hinton medium (Difco) in these cases Sample”
# [7] = system: Staphylococcus aureus ATCC 6538; experiment: as above; conditions: method 1, agar, 37° C., 72 hours
# Description: as §1, with “Method) Measurement of Minimum Inhibitory Concentration (MIC) Using an Agar Medium Dilution Method” for “Method)”, “samples shown below” for “samples”, “medium (Mueller Hinton medium (Difco)),” for “medium,”, “(MIC).” for “(MIC). (d) Corynebacterium xerosis JCM 1324 (g) Corynebacterium minutissimum IFO 15361 • Mueller Hinton medium (Difco) in these cases Sample”
# [8] = system: Bacillus subtilis PCI 219 IFO 3134; experiment: as above; conditions: method 1, agar, 37° C., 72 hours
# Description: as §1, with “Method) Measurement of Minimum Inhibitory Concentration (MIC) Using an Agar Medium Dilution Method” for “Method)”, “samples shown below” for “samples”, “medium (Mueller Hinton medium (Difco)),” for “medium,”, “(MIC).” for “(MIC). (d) Corynebacterium xerosis JCM 1324 (g) Corynebacterium minutissimum IFO 15361 • Mueller Hinton medium (Difco) in these cases Sample”
# [9] = system: Malassezia furfur IFO 0656; experiment: MIC, agar medium dilution method (Mueller Hinton medium); conditions: (e) Malassezia furfur, 37° C., 72 hours
# Description: as §1, with “(e) Malassezia furfur IFO 0656” for “(d) Corynebacterium xerosis JCM 1324”
# [10] = system: Staphylococcus epidermides JCM 2414; experiment: as above; conditions: (f) Staphylococcus epidermides, 37° C., 72 hours
# Description: as §1, with “(f) Staphylococcus epidermides” for “(d) Corynebacterium xerosis”, “2414” for “1324”
# [11] = system: Fusobacterium nuclestum JCM 6328; experiment: MIC, agar medium dilution method (Trypticase Soy Agar); conditions: (d) Fusobacterium nuclestum, 37° C., 72 hours
# Description: (§2) Test for Antibacterial Ability (Measurement of Minimum Inhibitory Concentration (MIC) Using an Agar Medium Dilution Method)
# (§3) The samples shown below were dissolved in ethanol to prepare a serial twofold dilution stage and 100 μL of each was added to 10 mL of a sterilized agar medium (Trypticase Soy Agar (BBL)), which was then stirred sufficiently, then transferred to a 9-cm-diameter Petri dish and solidified at ambient temperature. 5 μL of a diluted test bacteria (shown below) solution was implanted in the Petri dish and cultured at 37° C. for 72 hours. After the culturing was finished, the growth state of the medium in this Petri dish was compared with that in a Petri dish (blank) containing no sample and the concentration of the sample in which the growth of bacteria was not seen was defined as MIC.
# [12] = system: Actionmyces viscosus JCM 8352; experiment: as above; conditions: (c) Actionmyces viscosus, 37° C., 72 hours
# Description: as §2, §3
# [13] = system: Actinomyces naeslundii JCM 8350; experiment: as above; conditions: (b) Actinomyces naeslundii, 37° C., 72 hours
# Description: as §2, §3
# [14] = system: Porphyromonas gingivalis JCM 8525; experiment: as above; conditions: (f) Porphyromonas gingivalis, 37° C., 72 hours
# Description: as §2, §3
# [15] = system: Prevotella intermedia JCM 6322; experiment: as above; conditions: (e) Prevotella intermedia, 37° C., 72 hours
# Description: as §2, §3
# [16] = system: Streptococcus mutans JCM 5175; experiment: as above; conditions: (a) Streptococcus mutans, 37° C., 72 hours
# Description: as §2, §3
# [17] = system: Corynebacterium minutissimum IFO 15361; experiment: MIC, agar medium dilution method (Mueller Hinton medium); conditions: (g) Corynebacterium minutissimum, 37° C., 72 hours
# Description: as §1, with “(MIC).” for “(MIC). (d) Corynebacterium xerosis JCM 1324”
# [18] = system: Staphylococcus aureus IAM12082; experiment: MIC and MBC, liquid medium dilution method (NYG medium), qualification method 2; conditions: method 2, liquid medium
# Description: (§4) Measurements of MIC and Minimum Bactericidal Concentration (MBC) by Using a Liquid Medium Dilution Method
# (§5) The serial twofold dilution solution of the sample is prepared in the same manner as in the agar medium dilution method. 30 μL of the sample solution having each concentration is added to 3 mL of a liquid medium (NYG medium), to which is further added 60 μL of a test bacteria solution and the medium is cultured at 30° C. for 48 hours.
# (§6) A change of the turbidity of the medium is measured using a wavelength of 660 nm to find MIC. The media 60 μL each are taken out from a test tube in which no growth of the bacteria is found and implanted in 3 mL of a new medium and cultured for 48 hours. The minimum concentration at which no growth of the bacteria was observed is defined MBC.
# [19] = system: Staphylococcus aureus ATCC6538; experiment: as above; conditions: method 2, liquid medium
# Description: as §4, §5, §6
# Staphylococcus aureus = experiment: Conclusion from the measurement of MBC (liquid medium dilution method); conditions: from the results of the measurement of MBC (Table 4)
# Description: as §4, §5, §6
structure (smiles),measurement,setting,value
"CCCCOC(=O)c1ccc(O)cc1 [Sample C-2, Butylparabene]",Minimum inhibitory concentration (MIC),[1],50 ppm
same,Minimum inhibitory concentration (MIC),[2],100 ppm
same,Minimum inhibitory concentration (MIC),[3],100 ppm
same,Minimum inhibitory concentration (MIC),[4],200 ppm
same,Minimum inhibitory concentration (MIC),[5],50 ppm
same,MIC,[6],100 ppm
same,MIC,[7],200 ppm
same,MIC,[8],200 ppm
same,Minimum inhibitory concentration (MIC),[9],100 ppm
same,Minimum inhibitory concentration (MIC),[10],200 ppm
same,MIC,[11],100 ppm
same,MIC,[12],100 ppm
same,MIC,[13],100 ppm
same,MIC,[14],50 ppm
same,MIC,[15],100 ppm
same,MIC,[16],200 ppm
same,Minimum inhibitory concentration (MIC),[17],200 ppm
"Oc1cc(Cl)ccc1Oc1ccc(Cl)cc1Cl [Sample C-1, Trichlosane]",MBC,[18],0.977 ppm
same,MIC,"[18]; 30° C., 48 hours",0.244 ppm
same,MBC,[19],1.95 ppm
same,MIC,"[19]; 30° C., 48 hours",0.977 ppm
same,MIC,[11],3.1 ppm
same,MIC,[12],3.1 ppm
same,MIC,[13],3.1 ppm
same,MIC,[14],3.1 ppm
same,MIC,[15],3.1 ppm
same,MIC,[16],6.3 ppm
same,bactericidal or bacteriostatic action,Staphylococcus aureus,strong bactericidal activity

# From patent US7060726B2, “Antibacterial agent” (Takasago International Corporation, priority 2001, dated 2006)
